According to patent publication US20250101023A1, “HETEROARYL DERIVATIVE AND USES THEREOF” (IUCF-HYU (INDUSTRY-UNIVERSITY COOPERATION FOUNDATION …, priority 2022, published 2025):

Key:
GRK2 = GRK2 (Homo sapiens (Human), UniProt P25098); experiment: Kinome-wide profiling; type: biochemical; settings: read-out: % Residual Activity (mean)
CDK16/cyclin Y (PCTAIRE) = CDK16/cyclin Y (PCTAIRE) (Homo sapiens (Human), UniProt Q00536); experiment: Kinome-wide profiling; type: biochemical; settings: read-out: % Residual Activity (mean)
ITK = ITK (Homo sapiens (Human), UniProt Q08881); experiment: Kinome-wide profiling; type: biochemical; settings: read-out: % Residual Activity (mean)
EPHA6 = EPHA6 (Homo sapiens (Human), UniProt Q9UF33); experiment: Kinome-wide profiling; type: biochemical; settings: read-out: % Residual Activity (mean)
IRS1 and WNT1 = experiment: Western blot, CDK12 downstream gene expression; type: cell-based; settings: SK-Br3 and HCC1954 cell lines, 40 and 200 nM, 24 hours
TBK1 = TBK1 (Homo sapiens (Human), UniProt Q9UHD2); experiment: Kinome-wide profiling; type: biochemical; settings: read-out: % Residual Activity (mean)
PKCtheta = PKCtheta (Homo sapiens (Human), UniProt Q04759); experiment: Kinome-wide profiling; type: biochemical; settings: read-out: % Residual Activity (mean)
ABL1 = ABL1 (Homo sapiens (Human), UniProt P00519); experiment: Kinome-wide profiling; type: biochemical; settings: read-out: % Residual Activity (mean)
GRK1 = GRK1 (Homo sapiens (Human), UniProt Q15835); experiment: Kinome-wide profiling; type: biochemical; settings: read-out: % Residual Activity (mean)
ROCK1 = ROCK1 (Homo sapiens (Human), UniProt Q13464); experiment: Kinome-wide profiling; type: biochemical; settings: read-out: % Residual Activity (mean)
JAK1 = JAK1 (Homo sapiens (Human), UniProt P23458); experiment: Kinome-wide profiling; type: biochemical; settings: read-out: % Residual Activity (mean)
EGFR = EGFR (Homo sapiens (Human), UniProt P00533); experiment: Kinome-wide profiling; type: biochemical; settings: read-out: % Residual Activity (mean)
PKCg = PKCg (Homo sapiens (Human), UniProt P05129); experiment: Kinome-wide profiling; type: biochemical; settings: read-out: % Residual Activity (mean)
WNK1 = WNK1 (Homo sapiens (Human), UniProt Q9H4A3); experiment: Kinome-wide profiling; type: biochemical; settings: read-out: % Residual Activity (mean)
RSK2 = RSK2 (Homo sapiens (Human), UniProt P51812); experiment: Kinome-wide profiling; type: biochemical; settings: read-out: % Residual Activity (mean)
YSK4/MAP3K19 = YSK4/MAP3K19 (Homo sapiens (Human), UniProt Q56UN5); experiment: Kinome-wide profiling; type: biochemical; settings: read-out: % Residual Activity (mean)
GSK3b = GSK3b (Homo sapiens (Human), UniProt P49841); experiment: Kinome-wide profiling; type: biochemical; settings: read-out: % Residual Activity (mean)
ROS/ROS1 = ROS/ROS1 (Homo sapiens (Human), UniProt P08922); experiment: Kinome-wide profiling; type: biochemical; settings: read-out: % Residual Activity (mean)
SRMS = SRMS (Homo sapiens (Human), UniProt Q9H3Y6); experiment: Kinome-wide profiling; type: biochemical; settings: read-out: % Residual Activity (mean)
LCK2/ICK = LCK2/ICK (Homo sapiens (Human), UniProt Q9UPZ9); experiment: Kinome-wide profiling; type: biochemical; settings: read-out: % Residual Activity (mean)
PIM2 = PIM2 (Homo sapiens (Human), UniProt Q9P1W9); experiment: Kinome-wide profiling; type: biochemical; settings: read-out: % Residual Activity (mean)
GSK3a = GSK3a (Homo sapiens (Human), UniProt P49840); experiment: Kinome-wide profiling; type: biochemical; settings: read-out: % Residual Activity (mean)
Aurora A = Aurora A (Homo sapiens (Human), UniProt O14965); experiment: Kinome-wide profiling; type: biochemical; settings: read-out: % Residual Activity (mean)
MELK = MELK (Homo sapiens (Human), UniProt Q14680); experiment: Kinome-wide profiling; type: biochemical; settings: read-out: % Residual Activity (mean)
TYRO3/SKY = TYRO3/SKY (Homo sapiens (Human), UniProt Q06418); experiment: Kinome-wide profiling; type: biochemical; settings: read-out: % Residual Activity (mean)
PKN1/PRK1 = PKN1/PRK1 (Homo sapiens (Human), UniProt Q16512); experiment: Kinome-wide profiling; type: biochemical; settings: read-out: % Residual Activity (mean)
IRAK2 = IRAK2 (Homo sapiens (Human), UniProt O43187); experiment: Kinome-wide profiling; type: biochemical; settings: read-out: % Residual Activity (mean)
P38b/MAPK11 = P38b/MAPK11 (Homo sapiens (Human), UniProt Q15759); experiment: Kinome-wide profiling; type: biochemical; settings: read-out: % Residual Activity (mean)
GLK/MAP4K3 = GLK/MAP4K3 (Homo sapiens (Human), UniProt Q8IVH8); experiment: Kinome-wide profiling; type: biochemical; settings: read-out: % Residual Activity (mean)
CDK1/cyclin B = CDK1/cyclin B (Homo sapiens (Human), UniProt P06493); experiment: Kinome-wide profiling; type: biochemical; settings: read-out: % Residual Activity (mean)
RIPK5 = RIPK5 (Homo sapiens (Human), UniProt Q6XUX3); experiment: Kinome-wide profiling; type: biochemical; settings: read-out: % Residual Activity (mean)
BRAF = BRAF (Homo sapiens (Human), UniProt P15056); experiment: Kinome-wide profiling; type: biochemical; settings: read-out: % Residual Activity (mean)
EPHA1 = EPHA1 (Homo sapiens (Human), UniProt P21709); experiment: Kinome-wide profiling; type: biochemical; settings: read-out: % Residual Activity (mean)
EPHA1, sequence (P21709 26-976): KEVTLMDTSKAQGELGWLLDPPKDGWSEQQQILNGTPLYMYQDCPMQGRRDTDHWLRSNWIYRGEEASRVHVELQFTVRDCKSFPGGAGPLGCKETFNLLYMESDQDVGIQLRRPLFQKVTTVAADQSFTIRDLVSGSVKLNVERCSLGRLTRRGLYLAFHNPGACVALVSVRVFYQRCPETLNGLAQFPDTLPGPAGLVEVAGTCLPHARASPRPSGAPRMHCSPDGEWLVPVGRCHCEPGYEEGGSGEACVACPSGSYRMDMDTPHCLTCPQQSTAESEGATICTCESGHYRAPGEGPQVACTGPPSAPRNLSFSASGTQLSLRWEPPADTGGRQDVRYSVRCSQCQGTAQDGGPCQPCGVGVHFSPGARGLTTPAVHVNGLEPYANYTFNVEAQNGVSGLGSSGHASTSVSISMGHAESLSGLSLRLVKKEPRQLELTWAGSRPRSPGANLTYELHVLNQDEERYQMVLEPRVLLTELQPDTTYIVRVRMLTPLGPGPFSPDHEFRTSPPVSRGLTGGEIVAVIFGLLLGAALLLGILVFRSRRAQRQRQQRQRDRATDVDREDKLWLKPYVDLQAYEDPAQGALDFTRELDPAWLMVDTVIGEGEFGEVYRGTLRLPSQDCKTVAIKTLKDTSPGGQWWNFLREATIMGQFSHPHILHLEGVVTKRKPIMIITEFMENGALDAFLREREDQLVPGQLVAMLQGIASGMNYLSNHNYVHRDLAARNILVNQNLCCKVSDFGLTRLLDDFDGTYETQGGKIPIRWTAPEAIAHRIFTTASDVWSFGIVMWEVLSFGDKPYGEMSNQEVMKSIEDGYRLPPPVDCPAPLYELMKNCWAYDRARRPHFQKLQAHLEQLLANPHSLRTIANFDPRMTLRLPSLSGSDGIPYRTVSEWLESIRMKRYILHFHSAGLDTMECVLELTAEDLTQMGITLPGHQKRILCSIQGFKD

IRAK2, sequence (O43187 whole entry): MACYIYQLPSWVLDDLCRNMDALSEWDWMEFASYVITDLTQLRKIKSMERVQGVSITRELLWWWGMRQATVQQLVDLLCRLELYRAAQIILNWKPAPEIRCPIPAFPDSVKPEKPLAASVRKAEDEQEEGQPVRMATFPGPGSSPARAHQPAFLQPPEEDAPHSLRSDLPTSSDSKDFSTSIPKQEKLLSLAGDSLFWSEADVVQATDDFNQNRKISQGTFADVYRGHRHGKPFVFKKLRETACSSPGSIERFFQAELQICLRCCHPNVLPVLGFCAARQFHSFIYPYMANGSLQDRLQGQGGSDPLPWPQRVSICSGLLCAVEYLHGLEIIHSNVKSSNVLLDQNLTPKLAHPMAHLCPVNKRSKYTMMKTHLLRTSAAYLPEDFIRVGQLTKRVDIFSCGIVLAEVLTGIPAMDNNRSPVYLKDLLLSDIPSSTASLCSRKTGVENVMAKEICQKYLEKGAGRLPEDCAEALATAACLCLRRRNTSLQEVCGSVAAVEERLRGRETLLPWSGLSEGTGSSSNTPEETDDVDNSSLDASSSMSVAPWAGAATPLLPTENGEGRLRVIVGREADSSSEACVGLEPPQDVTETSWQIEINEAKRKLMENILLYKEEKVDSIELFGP
BRAF, sequence (P15056 whole entry): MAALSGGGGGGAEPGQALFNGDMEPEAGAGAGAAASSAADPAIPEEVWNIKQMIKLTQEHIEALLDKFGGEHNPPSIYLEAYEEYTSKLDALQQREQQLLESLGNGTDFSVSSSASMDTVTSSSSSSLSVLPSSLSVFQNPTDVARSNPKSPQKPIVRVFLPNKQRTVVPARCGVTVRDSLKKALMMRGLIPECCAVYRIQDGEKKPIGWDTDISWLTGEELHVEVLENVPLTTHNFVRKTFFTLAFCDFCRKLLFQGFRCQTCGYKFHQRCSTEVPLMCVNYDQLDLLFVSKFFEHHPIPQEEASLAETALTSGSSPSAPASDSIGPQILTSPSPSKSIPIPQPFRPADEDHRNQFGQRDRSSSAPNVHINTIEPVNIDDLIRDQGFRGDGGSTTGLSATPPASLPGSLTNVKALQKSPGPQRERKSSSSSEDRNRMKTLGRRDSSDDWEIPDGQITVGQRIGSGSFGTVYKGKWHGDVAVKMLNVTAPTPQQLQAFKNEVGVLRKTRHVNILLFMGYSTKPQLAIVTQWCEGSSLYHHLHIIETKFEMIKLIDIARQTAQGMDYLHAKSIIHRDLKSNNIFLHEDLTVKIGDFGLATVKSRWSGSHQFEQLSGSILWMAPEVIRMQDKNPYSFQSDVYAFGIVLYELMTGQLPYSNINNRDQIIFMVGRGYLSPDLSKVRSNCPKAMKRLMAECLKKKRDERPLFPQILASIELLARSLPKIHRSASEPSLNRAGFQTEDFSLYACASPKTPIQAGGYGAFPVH
GSK3a, sequence (P49840 whole entry): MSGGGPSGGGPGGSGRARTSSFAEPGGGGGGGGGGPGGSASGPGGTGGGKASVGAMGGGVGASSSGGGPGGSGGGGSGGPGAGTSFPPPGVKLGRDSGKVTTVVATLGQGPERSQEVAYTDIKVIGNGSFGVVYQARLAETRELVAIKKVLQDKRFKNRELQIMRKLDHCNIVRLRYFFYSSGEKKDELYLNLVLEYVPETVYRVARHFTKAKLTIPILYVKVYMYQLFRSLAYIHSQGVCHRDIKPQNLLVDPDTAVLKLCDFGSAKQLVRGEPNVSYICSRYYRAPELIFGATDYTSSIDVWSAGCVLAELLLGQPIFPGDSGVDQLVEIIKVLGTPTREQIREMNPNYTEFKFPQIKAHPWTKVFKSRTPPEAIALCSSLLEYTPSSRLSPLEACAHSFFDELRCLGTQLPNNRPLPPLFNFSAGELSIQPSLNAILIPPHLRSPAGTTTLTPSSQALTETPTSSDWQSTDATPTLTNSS
CDK1/cyclin B, sequence (P06493 whole entry): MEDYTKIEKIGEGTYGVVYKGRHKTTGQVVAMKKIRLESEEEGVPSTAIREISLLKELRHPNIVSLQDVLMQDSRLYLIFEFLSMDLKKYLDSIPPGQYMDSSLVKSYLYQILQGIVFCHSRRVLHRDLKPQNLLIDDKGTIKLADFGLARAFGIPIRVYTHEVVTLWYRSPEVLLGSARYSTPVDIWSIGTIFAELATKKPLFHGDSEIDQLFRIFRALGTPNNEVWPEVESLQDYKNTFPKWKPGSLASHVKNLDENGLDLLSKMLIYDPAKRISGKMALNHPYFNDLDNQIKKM
CDK1/cyclin B, sequence (P14635 whole entry partner): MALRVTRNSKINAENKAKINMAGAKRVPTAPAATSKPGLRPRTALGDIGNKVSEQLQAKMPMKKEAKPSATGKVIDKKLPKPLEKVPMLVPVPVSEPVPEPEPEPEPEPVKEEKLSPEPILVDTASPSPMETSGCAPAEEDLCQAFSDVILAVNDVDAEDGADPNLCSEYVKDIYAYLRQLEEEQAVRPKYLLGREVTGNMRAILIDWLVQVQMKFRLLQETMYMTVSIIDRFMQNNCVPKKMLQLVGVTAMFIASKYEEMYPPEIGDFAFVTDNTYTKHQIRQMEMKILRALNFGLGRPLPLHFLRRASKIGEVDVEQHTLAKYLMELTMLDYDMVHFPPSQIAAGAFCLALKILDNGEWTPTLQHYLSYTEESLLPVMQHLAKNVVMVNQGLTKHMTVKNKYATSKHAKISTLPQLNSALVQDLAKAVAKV
SRMS, sequence (Q9H3Y6 whole entry): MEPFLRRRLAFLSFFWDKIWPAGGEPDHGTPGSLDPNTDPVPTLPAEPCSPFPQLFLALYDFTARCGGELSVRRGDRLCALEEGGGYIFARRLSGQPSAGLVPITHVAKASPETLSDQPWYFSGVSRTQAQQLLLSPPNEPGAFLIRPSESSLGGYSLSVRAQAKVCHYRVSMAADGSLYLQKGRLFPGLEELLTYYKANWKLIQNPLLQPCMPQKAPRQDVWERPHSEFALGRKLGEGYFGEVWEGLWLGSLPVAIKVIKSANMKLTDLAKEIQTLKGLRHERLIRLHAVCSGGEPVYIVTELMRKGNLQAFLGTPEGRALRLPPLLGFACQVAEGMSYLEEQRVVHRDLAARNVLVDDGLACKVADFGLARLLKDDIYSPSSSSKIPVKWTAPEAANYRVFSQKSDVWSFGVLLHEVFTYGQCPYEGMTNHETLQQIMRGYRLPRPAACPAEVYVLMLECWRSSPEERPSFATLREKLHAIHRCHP

CCn1cnc2c(NCc3ccc(-c4ccccn4)nc3)nc(-c3ccc(N)nc3)nc21 [Example 53, N-([2,2′-bipyridin]-5-ylmethyl)-2-(6-aminopyridin-3-yl)-9-ethyl-9H-purin-6-amine]
remaining activity at 10 µM (GRK2): 99.1% | remaining activity at 10 µM (CDK16/cyclin Y (PCTAIRE)): 17.5% | remaining activity at 10 µM (ITK): 81.7% | remaining activity at 10 µM (EPHA6): 3.04% | expression of IRS1 and WNT1 (IRS1 and WNT1): inhibited the expression of IRS1 and WNT1 | expression of IRS1 and WNT1 (IRS1 and WNT1; listed as Compound 53): strongly suppressed | remaining activity at 10 µM (TBK1): 55% | remaining activity at 10 µM (PKCtheta): 79.8% | remaining activity at 10 µM (ABL1): 61.2% | remaining activity at 10 µM (GRK1): 76.3% | remaining activity at 10 µM (ROCK1): 97.2% | remaining activity at 10 µM (JAK1): 92.1% | remaining activity at 10 µM (EGFR): 83.7% | remaining activity at 10 µM (PKCg): 49.5% | remaining activity at 10 µM (WNK1): 82.5% | remaining activity at 10 µM (RSK2): 69.4% | remaining activity at 10 µM (YSK4/MAP3K19): 96.8% | remaining activity at 10 µM (GSK3b): 5.76% | remaining activity at 10 µM (ROS/ROS1): 27.8% | remaining activity at 10 µM (SRMS): 96.8% | remaining activity at 10 µM (LCK2/ICK): 39.6% | remaining activity at 10 µM (PIM2): 93.8% | remaining activity at 10 µM (GSK3a): 10.6% | remaining activity at 10 µM (Aurora A): 33.4% | remaining activity at 10 µM (MELK): 21.1% | remaining activity at 10 µM (TYRO3/SKY): 22.4% | remaining activity at 10 µM (PKN1/PRK1): 85.4% | remaining activity at 10 µM (IRAK2): 97.5% | remaining activity at 10 µM (P38b/MAPK11): 64.7% | remaining activity at 10 µM (GLK/MAP4K3): 49.6% | remaining activity at 10 µM (CDK1/cyclin B): 2.06% | remaining activity at 10 µM (RIPK5): 67.8% | remaining activity at 10 µM (BRAF): 60.8% | remaining activity at 10 µM (EPHA1): 13.2%
